Our source for the T/C values is PubChem BioAssay AID328 (DTP/NCI, 2004).

This test deals with BDF1 mice, P388 leukemia ip, median survival T/C. Briefly: NCI In Vivo Anticancer Drug Screen. Data for tumor model P388 Leukemia (intraperitoneal) in B6D2F1 (BDF1) mice. As to conditions: endpoint: median survival time, higher = longer survival. The essentials:
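Antitumour effect was judged in vivo: survival in drug-treated mice, normalised to that of vehicle-dosed controls, gives the reported T/C.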

[1] abbreviates: dose: 100.0 mg/kg/injection, schedule: Q01DX009 (ip), vehicle: saline.
[2] abbreviates: dose: 200.0 mg/kg/injection, schedule: Q01DX009 (ip), vehicle: saline.
[3] abbreviates: dose: 50.0 mg/kg/injection, schedule: Q01DX009 (ip), vehicle: saline.
Where [4] appears, read: dose: 50.0 mg/kg/injection, schedule: Q01DX009 (ip), vehicle: saline with Tween-80.
Where [5] appears, read: dose: 100.0 mg/kg/injection, schedule: Q01DX009 (ip), vehicle: saline with Tween-80.

SMILES strings stand for the structures. “And” between values parts separate entries of the source, which are not always exact repeats. Identical values can stand only once. Inconclusive results and toxic doses are left out.

Consider `C#CCOC(=O)NCC`, for which the T/C was 100 % of control under setting [1]; 100 % of control (dose: 100.0 mg/kg/injection, schedule: Q04DX003 (ip), vehicle: saline); 115 % of control under setting [2]; 100 % of control (dose: 200.0 mg/kg/injection, schedule: Q04DX003 (ip), vehicle: saline); 115 % of control (dose: 400.0 mg/kg/injection, schedule: Q01DX009 (ip), vehicle: saline); 104 % of control (dose: 400.0 mg/kg/injection, schedule: Q04DX003 (ip), vehicle: saline).
`NC(=O)c1c(Cl)nc(-c2cccc([N+](=O)[O-])c2)c([N+](=O)[O-])c1C(F)(F)F`: the T/C reads like this: (dose: 50.0 mg/kg/injection, schedule: Q01DX005 (ip), vehicle: saline with Tween-80) 87 % of control; (dose: 100.0 mg/kg/injection, schedule: Q01DX005 (ip), vehicle: saline with Tween-80) 115 % of control; (dose: 200.0 mg/kg/injection, schedule: Q01DX005 (ip), vehicle: saline with Tween-80) 112 % of control.
As for `NCCCC(NC(=O)CCCCCCCCN=C(N)N)C(O)CCCCCCCCN=C(N)N` (configuration not stated), the T/C (dose: 3.75 mg/kg/injection, schedule: Q01DX010 (ip), vehicle: saline) is 91 % of control.
Consider `CS(=O)(=O)OCCNC[C@@H](O)[C@@H](O)CNCCOS(C)(=O)=O`, for which the T/C runs as follows: (dose: 0.17 mg/kg/injection, schedule: Q04DX003 (ip), vehicle: saline) 121 % of control; (dose: 0.26 mg/kg/injection, schedule: Q04DX003 (ip), vehicle: saline) 117 % of control; (dose: 0.4 mg/kg/injection, schedule: Q04DX003 (ip), vehicle: saline) 154 % of control; (dose: 0.6 mg/kg/injection, schedule: Q04DX003 (ip), vehicle: saline) 170 % of control; (dose: 0.92 mg/kg/injection, schedule: Q04DX003 (ip), vehicle: saline) 175 % of control; (dose: 1.3 mg/kg/injection, schedule: Q04DX003 (ip), vehicle: saline) 175 % of control. Also, the T/C by setting is: (dose: 2.1 mg/kg/injection, schedule: Q04DX003 (ip), vehicle: saline) 186 % of control; (dose: 3.1 mg/kg/injection, schedule: Q04DX003 (ip), vehicle: saline) 168 % of control; (dose: 11.0 mg/kg/injection, schedule: Q04DX003 (ip), vehicle: saline) 200 % of control; (dose: 16.0 mg/kg/injection, schedule: Q04DX003 (ip), vehicle: saline) 243 % of control; (dose: 33.0 mg/kg/injection, schedule: Q04DX003 (ip), vehicle: saline) 300 % of control and 118 % of control.
As to `Cc1cc(C)c(CCc2cc(C)c(C)cc2C)cc1C`, the T/C is, setting by setting: (dose: 50.0 mg/kg/injection, schedule: Q04DX003 (ip), vehicle: Klucel (hydroxypropylcellulose) (HPC)) 95 % of control; (dose: 100.0 mg/kg/injection, schedule: Q04DX003 (ip), vehicle: Klucel (hydroxypropylcellulose) (HPC)) 91 % of control; (dose: 200.0 mg/kg/injection, schedule: Q04DX003 (ip), vehicle: Klucel (hydroxypropylcellulose) (HPC)) 87 % of control and 108 % of control.
As to `CNC/C(C)=C/Br`, the T/C was 100 % of control (dose: 12.5 mg/kg/injection, schedule: Q01DX009 (ip), vehicle: acetone); 100 % of control (dose: 18.75 mg/kg/injection, schedule: Q04DX003 (ip), vehicle: saline); 104 % of control (dose: 25.0 mg/kg/injection, schedule: Q01DX009 (ip), vehicle: acetone); 104 % of control (dose: 37.5 mg/kg/injection, schedule: Q04DX003 (ip), vehicle: saline); 104 % of control (dose: 50.0 mg/kg/injection, schedule: Q01DX009 (ip), vehicle: acetone); 100 % of control under setting [3]. Moreover, the T/C is 100 % of control (dose: 63.75 mg/kg/injection, schedule: Q01DX001 (ip), vehicle: saline); 95 % of control (dose: 75.0 mg/kg/injection, schedule: Q01DX009 (ip), vehicle: saline); 95 % of control (dose: 75.0 mg/kg/injection, schedule: Q04DX003 (ip), vehicle: saline); 115 % of control under setting [1]; 110 % of control (dose: 110.0 mg/kg/injection, schedule: Q04DX003 (ip), vehicle: saline); 100 % of control (dose: 127.5 mg/kg/injection, schedule: Q01DX001 (ip), vehicle: saline). Besides, the T/C (dose: 170.0 mg/kg/injection, schedule: Q04DX003 (ip), vehicle: saline) is 110 % of control; the T/C under setting [2] is 105 % of control; the T/C (dose: 255.0 mg/kg/injection, schedule: Q04DX003 (ip), vehicle: saline) is 105 % of control.
As to `CCC12CCCN3C(=O)CC(C(=O)CC1)C32` (configuration not stated), the T/C is, setting by setting: (dose: 25.0 mg/kg/injection, schedule: Q04DX003 (ip), vehicle: saline sonified) 95 % of control; (dose: 50.0 mg/kg/injection, schedule: Q04DX003 (ip), vehicle: saline sonified) 109 % of control; (dose: 100.0 mg/kg/injection, schedule: Q04DX003 (ip), vehicle: saline sonified) 109 % of control.
In the case of `CCCN=C(N)c1ccc(N=C(N)c2ccc(N=C(N)c3ccc(C(N)=NCCC)cc3)cc2)cc1`, the T/C is 154 % of control (dose: 10.0 mg/kg/injection, schedule: Q01DX009 (ip), vehicle: saline) and 190 % of control (dose: 15.0 mg/kg/injection, schedule: Q01DX009 (ip), vehicle: saline).
On to `COC1OC(COC(C)=O)C(OC(C)=O)C(OC(C)=O)[CH]1[Hg][O]C(C)=O` (configuration not stated), for which the T/C is 95 % of control (dose: 3.13 mg/kg/injection, schedule: Q01DX009 (ip), vehicle: saline) and 114 % of control (dose: 6.25 mg/kg/injection, schedule: Q01DX009 (ip), vehicle: saline).
As for `CCCCCCCCCCCCCCCCCC[n+]1cccc(C2CCCN2C)c1` (configuration not stated) (tested in a mixture with another compound), the T/C (dose: 25.0 mg/kg/injection, schedule: Q01DX009 (ip), vehicle: Klucel (hydroxypropylcellulose) (HPC)) was 119 % of control.
`CCCNCCC(O)c1cc(C(F)(F)F)nc2c(C(F)(F)F)cccc12` (configuration not stated): the T/C by setting is: (dose: 25.0 mg/kg/injection, schedule: Q01DX009 (ip), vehicle: saline with Tween-80) 103 % of control; under setting [4], 111 % of control and 124 % of control; under setting [5], 111 % of control.
As for `COC1=CC(=O)C=C(OC)C1=O`, the T/C is 105 % of control (dose: 2.0 mg/kg/injection, schedule: Q01DX010 (ip), vehicle: saline); 100 % of control (dose: 4.0 mg/kg/injection, schedule: Q01DX010 (ip), vehicle: saline); 105 % of control (dose: 8.0 mg/kg/injection, schedule: Q01DX010 (ip), vehicle: saline).
With `NCc1cc(=O)[nH]o1`, the T/C reads like this: (dose: 2.5 mg/kg/injection, schedule: Q01DX005 (ip), vehicle: saline) 98 % of control; (dose: 5.0 mg/kg/injection, schedule: Q01DX005 (ip), vehicle: saline) 106 % of control.
Turning to `CCOC(=O)C1c2cccc(O)c2C=CN1C(C)=O` (configuration not stated), the T/C is, setting by setting: (dose: 100.0 mg/kg/injection, schedule: Q04DX003 (ip), vehicle: saline with Tween-80) 91 % of control; (dose: 200.0 mg/kg/injection, schedule: Q04DX003 (ip), vehicle: saline with Tween-80) 91 % of control; (dose: 400.0 mg/kg/injection, schedule: Q04DX003 (ip), vehicle: saline with Tween-80) 95 % of control.
On to `CC(=O)OC1CCC2(C)C3CCC4(C)C(O)CCC4C3CC(O)C2(O)C1` (configuration not stated), for which the T/C reads like this: under setting [3], 103 % of control; under setting [1], 88 % of control; under setting [2], 107 % of control.
As to `COC(=O)C(CSCSC)NC(=O)/C=C/c1cc(OC)ccc1OC` (configuration not stated), the T/C is, setting by setting: under setting [4], 93 % of control; under setting [5], 92 % of control; (dose: 200.0 mg/kg/injection, schedule: Q01DX009 (ip), vehicle: saline with Tween-80) 88 % of control.
With `CC(=O)Nc1ccc(SSSc2ccc(NC(C)=O)cc2)cc1`, the T/C was 100 % of control (dose: 12.5 mg/kg/injection, schedule: Q01DX009 (ip), vehicle: water); 96 % of control (dose: 25.0 mg/kg/injection, schedule: Q01DX009 (ip), vehicle: water); 101 % of control (dose: 50.0 mg/kg/injection, schedule: Q01DX009 (ip), vehicle: water); 105 % of control (dose: 100.0 mg/kg/injection, schedule: Q01DX009 (ip), vehicle: water); 111 % of control and 118 % of control (dose: 200.0 mg/kg/injection, schedule: Q01DX009 (ip), vehicle: water).
Consider `CC(C)=C(B1OC(C)(C)C(C)(C)O1)B1OC(C)(C)C(C)(C)O1`, for which the T/C (dose: 100.0 mg/kg/injection, schedule: Q01DX001 (ip), vehicle: saline with Tween-80) was 110 % of control; the T/C (dose: 200.0 mg/kg/injection, schedule: Q01DX001 (ip), vehicle: saline with Tween-80) was 105 % of control; the T/C (dose: 400.0 mg/kg/injection, schedule: Q01DX001 (ip), vehicle: saline with Tween-80) is 105 % of control.
